89 molecules from a melting point compilation (Tetko et al.; mined from patent text by program, amines drawn as free bases though some values may be those of a salt) can be followed below.

In general, melting point refers to the temperature, or range, at which the solid turns liquid.

Regarding `CNC(=O)C1OC1C(=O)c1ccc(Cl)cc1` (centres undefined), the melting point was 160 to 161 °C.
`CCOC(=O)c1cc2ccc(C(C)C)nc2s1` gave a melting point of 73 to 74 °C.
With `CC(=O)Oc1cccc2c1C(=O)C(CN1CCC(O)(c3ccccc3)CC1)CC2` (centres undefined), the melting point fell in the range of 170 to 172 °C.
The same measure for `O=C(Nc1ccc2cc(CN3CCCC3)ccc2c1)c1ccc(-c2ccc(Cl)cc2)cc1`: 214 to 217 °C.
`COc1cccc(C23CCCC2C(=O)N(Cc2ccccc2)C(=O)C3)c1` (centres undefined) yielded a melting point of 75 to 77 °C.
The same measure for `COc1cc(OCC(O)CN2CCN(c3ccccc3NC(C)=O)CC2)cc(OC)c1OC` (centres undefined): 128 to 130 °C.
The same measure for `NC(=S)c1sc(N2CCCC2)nc1N`: 264 to 265 °C.
Molecule `O=C(C1CCC(Nc2nccc(-n3nnc4c(-c5ccoc5)cccc43)n2)CC1)N1CCC(O)CC1` (centres undefined) yielded a melting point of 243 to 244 °C.
The result for `Brc1cccc(-c2cc(-c3cccc(Br)c3)on2)c1` reads 155 to 156 °C.
On to `O=C(CSCCCCCCO)c1ccc2[nH]c(=O)[nH]c2c1`, for which the melting point is 180 to 181 °C.
`Cn1cc(C(=O)O)c(=O)c2cc3cc(F)c(N4CCNC(c5cccc(F)c5)C4)cc3nc21` (racemic) came in with a melting point of 254 °C.
The same measure for `N#CNC(=Nc1ccncc1)NCCCCOc1ccccc1`: 131 °C; for `CNN(NC)C(=O)Nc1cccc2c1C(=O)c1c-2n[nH]c1-c1ccco1`: 202 °C; for `CCOCCOc1ccc(COc2cnn(C(C)(C)C)c(=O)c2Cl)cc1`: 82 to 83 °C.
The molecule `N#CCc1ccc(OCc2ccccc2)cc1OCc1ccccc1` displayed a melting point of 99 to 100 °C.
`COCc1c(C(C)C)nc(-c2ccc(F)cc2)c(C=O)c1C(C)C` returned a melting point of 77 °C.
The result for `COC(=O)C1(NS(=O)(=O)c2ccc3c(Cl)cnc(NC(=N)N)c3c2)CCOCC1` reads 245 to 247 °C; that for `OC(CCc1ccccc1)c1cnc2sc3c(n12)CCCCCC3` (centres undefined), 123 to 124 °C.
With `C=CC=CC(=O)Nc1cc2c(Nc3cccc(Br)c3)ncnc2cn1`, the melting point is 210 to 215 °C.
The same measure for `O=C(O)CCc1c(Br)cccc1C(F)(F)F`: 122 to 126 °C; for `CN=C1c2ccccc2CCc2ccccc21`: 89 to 90 °C; for `O=[N+]([O-])c1nccn1C1CCCC1O` (centres undefined): 109 °C.
In the case of `CCCC(=O)c1c[nH]c2c(C(=O)OC)cccc2c1=O`, the melting point lay in the range of 151 to 153 °C.
The result for `O=C(CCl)NCCCCOc1cc(CN2CCCCC2)ccn1` reads 59 to 63 °C; that for `OCc1ccc(Cc2ccccc2CO)cc1`, 102 °C; that for `CC(/C=C/CN1CCc2cc3c(cc21)C(C)(C)CCC3(C)C)=C\C(=O)O`, 170 to 171 °C.
The same measure for `CN(C)Cc1nnc2n1-c1sc(Cl)cc1C(c1ccccc1[N+](=O)[O-])=NC2`: 234 to 236 °C; for `CCN(CC)CC#CCNC(=O)C(O)(c1ccccc1)C1CCCCC1` (centres undefined): 102 to 104 °C.
The same measure for `CC1c2ccccc2-c2ccccc2N1S(=O)(=O)c1ccc(O)cc1` (centres undefined): 196 to 198 °C; for `O=C(NCc1cccnc1)c1sc(N2CCN(Cc3ccc(F)cc3)C2=O)nc1C(F)(F)F`: 161 to 162 °C; for `CCCCC1C=C(n2c3ccccc3c3ccccc32)c2ccccc2N1C(=O)c1ccc(OC)c(OC)c1` (centres undefined): 174 to 175 °C.
`CC1(C)CCC(C)(C)c2cc(-c3cc(-c4ccc(C(=O)O)cc4)ccc3OCC(O)CO)ccc21` (centres undefined) gave a melting point of 258 °C.
The result for `CN1CCN(c2cc(Cl)cc3c2c(=O)n(Cc2ccc(F)cc2)c(=O)n3Cc2ccccc2)CC1` reads 110 to 114 °C; that for `CCCCCCCNC(=O)CCCCSc1nc(-c2ccccc2)c(-c2ccccc2)[nH]1`, 104 to 106 °C.
Consider `CC(C)CCN1C(=O)C(N)C(=O)N(CC23CC4CC(CC(C4)C2)C3)c2ccccc21` (centres undefined), for which the melting point is 218 to 219 °C.
The result for `CC12CC3CC(C1)CC(CC(O)C(c1cccc(Cl)c1)n1ccnc1)(C3)C2` (centres undefined) reads 126 °C; that for `O=C(NCc1c(Cl)cccc1Oc1ccccc1)C1CCc2[nH]cnc2C1` (centres undefined), 197 to 199 °C; that for `COC(=O)C1=C(C(=O)OC)c2c(c3ccccc3n2C)CC1`, 113 °C.
The same measure for `CCCCCC(CC(=O)Nc1cc(C(N)=O)ccc1C(C)(C)C)c1ccc(C)cc1OC` (centres undefined): 175 to 177 °C; for `Cc1ccc(O)c(C(OC2CCN(C)CC2)c2nc3ccccc3[nH]2)c1` (centres undefined): 151 °C; for `CC1CCCN1CC=CC(=O)Nc1cc2c(Nc3ccc(F)c(Cl)c3)ncnc2cc1OCC1CC1` (centres undefined): 108 to 110 °C.
The same measure for `Oc1nc2ccc(Br)cc2[nH]1`: 305 to 307 °C.
For `C(=C\c1nc2ccccc2n1-c1ccccn1)/c1ccsc1`, the melting point came to 136 °C.
`C[C@H](C#Cc1ccc(COCc2ccc(F)cc2)s1)N(O)C(N)=O` had a melting point of 90 to 91 °C.
`CNC(=O)N(O)C(C)c1ccc(C(F)(F)F)cc1` (centres undefined) registered a melting point of 124 to 125 °C.
The result for `Cc1nc2c(N)nc3ccccc3c2n1CCCNC(=O)C1CCCC1` reads 208 to 209 °C; that for `COc1c(Cl)ccc(-c2cc(N)c(Cl)c(C(=O)NOC/C=C/Cl)n2)c1F`, 163 to 165 °C.
In the case of `CCOC(=O)CCc1cn(Cc2ccc(OC)c(OCc3nc(-c4ccccc4)oc3C)c2)nc1OCC`, the melting point is 109 to 110 °C.
The result for `Cc1c(C)c2c(c(C)c1NC(=O)NC(C)(C)CO)C(c1ccc(C(C)C)cc1)CO2` (centres undefined) reads 157 to 158 °C.
The result for `COC(=O)C1=C(C)NC(C)=C(C(=O)OCC2CCC(=O)O2)C1c1ccccc1[N+](=O)[O-]` (centres undefined) reads 132 to 134 °C; that for `Cn1nc2ccccc2c1S(N)(=O)=O`, 181 to 183 °C; that for `C#CCNC(=O)c1cccc(F)c1N`, 89 to 91 °C.
Consider `CSc1nc(Cl)nc(Cl)n1`, for which the melting point lay within 57 to 59 °C.
For `CC(=O)OC1CSC(Oc2cccc(-c3c(C)n[nH]c3C)c2)C(OC(C)=O)C1OC(C)=O` (centres undefined), the melting point was found to be 195 °C.
The same measure for `CNC(Cc1ccccc1NC(=O)C(C)(C)C)c1cccs1` (centres undefined): 78.5 to 82 °C; for `O=C(CCCCl)c1ccc2c(c1)Cc1cc(C(=O)CCCCl)ccc1-2`: 172 to 175 °C; for `Cc1ccc(S(=O)(=O)c2ccc(Cl)c(NC(=O)N[C@@H](Cc3ccc(NC(=O)c4c(Cl)cccc4Cl)cc3)C(=O)O)c2)cc1`: 241 °C.
The same measure for `CCC(Cc1ccc(C(C)C(=O)O)cc1)C(C)O` (centres undefined): 100 to 103 °C; for `CN1CN(c2ccccc2)C2(CCN(CCCC(=O)c3ccc(F)cc3I)CC2)C1=O`: 115 to 118 °C.
The same measure for `CC(=O)NC(=S)NC1CC2c3cccc4[nH]cc(c34)CC2N(C)C1` (centres undefined): 240 to 242 °C; for `O=S(=O)(c1ccc(Oc2cncc(Br)c2)cc1)N1CCCC1`: 148 °C.
In the case of `CCCc1c2nc(C(=O)OCC)cc(C#N)c2cc2c(=O)cc(C(=O)OCC)oc12`, the melting point was in the range of 207 to 209 °C.
The same measure for `FC(F)(F)c1cc(Cl)c(-n2cnc(C(F)(F)C(F)(F)Cl)c2)c(Cl)c1`: 101 °C.
In the case of `CC(=Cc1ccsc1Cl)[N+](=O)[O-]`, the melting point is 73 to 76 °C.
In the case of `COc1ccc(N2CCN(c3ccc(-n4cnn(C(C)C)c4=O)cc3)CC2)cc1`, the melting point was 210 °C.
The same measure for `CN1CCC2(CC1)SC(C(C(=O)OC(C)(C)C)N1C(=O)c3ccccc3C1=O)NC2C(=O)OCc1ccccc1` (centres undefined): 173 to 175 °C; for `CC(C)/C=c1\[nH]c(=O)/c(=C/c2c[nH]c3ccccc23)[nH]c1=O`: above 300 °C; for `COc1cccc(NC(=O)c2ccc(C(=O)N3CCCc4ccccc43)cc2)c1`: 154 to 155 °C.
The same measure for `S=C1Nc2ccccc2Sc2ccccc21`: 245 to 246 °C; for `CNc1nc(-c2ccccc2)c(-c2nc3ccccc3c(=O)n2-c2ccccc2Cl)s1`: 215 to 217 °C.
On to `CC1CCN(c2cc(F)cc(C(=O)Nc3ccc(Oc4ccnc(N5CCOCC5)n4)c4ccccc34)c2)CC1`, for which the melting point fell in the range of 88 to 89 °C.
The result for `COc1ccc(S(=O)(=O)Nc2cccc3c2Nc2ccc(F)c(O)c2CO3)cc1` reads 219 to 232 °C.
The result for `CCC(C#N)(Cn1cncn1)c1ccc(Br)cc1` (centres undefined) reads 68 to 70 °C; that for `CC(C)c1nc(COCc2ccccc2)n(CC2CC2)c1Sc1cc(Cl)cc(Cl)c1`, 120 to 121 °C.
The same measure for `CCOC(=O)c1cnc2c(OC)nccc2c1Nc1ccccc1C`: 158 °C.
In turn, `Cc1ccc(C=Cc2ccccc2C(=O)O)cc1` showed a melting point of 80 to 82 °C.
The result for `COc1ccc2c(c1)Cc1c([nH]cnc1=O)N2` reads above 300 °C; that for `C#Cc1ccc2c(c1)C(c1ccccc1F)=NCc1c(C(=O)NC)ncn1-2`, 235 to 236 °C; that for `Cc1cc(C)c2nsnc2c1N`, 113 to 114 °C.
The same measure for `O=C(Nc1ccc2[nH]c(=O)sc2c1)C(=O)N1CCC(Cc2ccc(F)cc2)CC1`: 224 to 226 °C; for `N#CCCOc1ccccc1OCCC#N`: 124 to 125 °C.
The result for `Cn1ncc(/C=C/C(=O)Nc2ccc(Cc3nn(C)c(=O)o3)cc2)c1-c1ccc(F)cc1` reads 200 to 201 °C; that for `CC(C)N(C(=O)CO)c1ccccc1`, 39 °C; that for `CCOC(=O)C1=C(C)N=C(SCc2ccc(OC)cc2)N(C(=O)OCC)C1c1ccccc1OC` (centres undefined), 116 to 118 °C.
As to `CN(C(=O)Oc1ccc(Cl)c(C(C)(C)C)c1)c1ccc(F)cc1`, the melting point was in the range of 92 to 94 °C.
The result for `OC[C@@H]1Cc2cc3ccccc3n2C[C@H]1CO` (relative stereo) reads 162 to 163 °C; that for `O=C(O)c1cn(C2CC2)c2c(F)c(F)c(Cl)cc2c1=O`, 200 to 204 °C.
The result for `CCC(C)C=C(C(=O)c1ccc(Cl)cc1Cl)n1cncn1` (centres undefined) reads 101 to 104 °C; that for `OC[C@@H]1Cc2ccccc2CN1C(=S)Nc1cccc2cnccc12`, 190 °C.
